Reference: PubChem BioAssay AID2060910 (Molecular Pharmacology Branch, DTP, NCI, 2025)

Test system: 242566-281-R-J2-PDC complex spheroid viability
Assay: Anticancer human tumor 242566-281-R-J2-PDC patient-derived pancreatic carcinoma cell line growth inhibition [RAS]
Settings: for IC50: curve of first compound; for viability, T/C: stronger effect = lower value; active means viability on the fitted dose curve at most 10% of control; inactive means the rest
Text: RAS pathway inhibitors in Combinations in Complex Spheroids
A high-throughput screen of multi-cell type tumor spheroids was designed to identify active combinations of RAS pathway inhibitors and targeted small molecules. Complex spheroids include a stromal component modeled by human endothelial cells (HUVEC) and fibroblasts modeled by human mesenchymal stem cells (MSCs). The concentration ranges selected for each drug and investigational agent were based upon clinically achievable concentrations if the clinical Cmax of the agent was known.
Compounds. The drugs and investigational agents: abemaciclib (NSC768073), cobimetinib (NSC768068), divarasib (GDC6063, NSC841802), docetaxel (NSC628503), GDC-1971 (RLY-1971, NSC841576), gemcitabine (NSC613327), inavolisib (NSC800729), ipatasertib (NSC767898), KB-0742 (NSC834161), MRTX-1133 (NSC836407), osimertinib (NSC779217), RMC-4630 (NSC839698), RMC-6236 (NSC851965), RMC-6291 (NSC852671), Ro-3306 (NSC812927), sapanisertib (NSC764658), SN-38 (NSC673596), staurosporine (NSC755774), SY5609 (NSC837396), and tovorafenib (DAY101, NSC766906), were obtained from the National Cancer Institute (NCI) Developmental Therapeutics Program Chemical Repository. The FDA-approved anticancer drug set is available from the NCI Developmental Therapeutics Program. […] The stock solutions were prepared in dimethyl sulfoxide (DMSO, Sigma-Aldrich, St. Louis, MO, cat. D2650) at 800-fold the tested concentration and stored at -70 degrees C prior to their use. All drugs and investigational agents were tested over a range starting from a high concentration at or near the clinical Cmax and decreasing in half-log increments. If the clinical Cmax for an agent had not been determined, the highest concentration tested was 10 microM.
Cell Culture. All cells were maintained in an incubator at 37 degrees C and 5% CO2 with 95% humidity. The PDC lines were cultured according to standard operating procedures established by the NCI PDMR. All PDCs were thawed and cultured in Matrigel-coated flasks prepared with a working solution of 1X Ham's F-12 nutrient mix, without supplementation (Invitrogen, Waltham, MA, cat. 11765054), 100 U/mL penicillin-streptomycin (Invitrogen, cat. 15140122), and 2.5% Matrigel (Corning Inc., Corning, NY, cat. 354248) for the first three passages. The 362531-283-R-J2-PDC and 782815-120-R-J1-PDC lines were cultured in 6C/Colon 1B media, which includes advanced DMEM/F-12 (Thermo Fisher Scientific, cat. 12634028), 10 mM HEPES (Thermo Fisher Scientific, cat. 15630080), 1X GlutaMAX supplement (Thermo Fisher Scientific, cat. 35050061), 0.1 mg/mL primocin (InvivoGen, San Diego, CA, cat. ant-pm-2), 10% defined fetal bovine serum, heat inactivated (HyClone Laboratories Inc., Logan, UT, cat. SH30070.03HI), 50% L-WRN conditioned media (ATCC, cat. CRL-3276), 1.25 mM N-Acetyl-L-cysteine (Sigma-Aldrich, cat. A9165), 10 mM nicotinamide (Sigma-Aldrich, cat. N0636), 1X B-27 supplement (Thermo Fisher Scientific, cat. 17504044), 1X N-2 supplement (Thermo Fisher Scientific, cat. 17502048), 50 ng/mL human EGF (Thermo Fisher Scientific, cat. PHG0311), and 10 microM Y-27632 dihydrochloride (Tocris Bioscience, cat. 1254). The K12877-001-R-J1-PDC line was cultured in 6I media, which includes all 6C/Colon 1B media plus 10 ng/mL human FGF-10 (PeproTech, cat. 100-26), 1 ng/mL human FGF-2 (PeproTech, cat. 100-18B), 1 µM prostaglandin E2 (Tocris Bioscience, cat. 2296), […] hydrocortisone (Sigma-Aldrich, cat. H4001), and […] bovine insulin (Sigma-Aldrich, cat. I6634). The K86415-001-R-J1-PDC line was cultured in 6D media, which includes all 6C/Colon 1B media components minus the L-WRN conditioned media. The 485176-168-R4-J1-PDC was cultured in PANC media, which includes all 6C/Colon 1B media plus 100 ng/mL human FGF-10 (PeproTech, cat. 100-26), 500 nM SB-431542 (Selleckchem, cat. S1067), and 10 nM gastrin (Tocris Bioscience, cat. 3006). […]
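Further: spheroids exposed to compound for 7 days before readout.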
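Wherever viability, T/C is given: 100% = DMSO vehicle control wells.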

CC(C)n1nc(-c2ccc3oc(N)nc3c2)c2c(N)ncnc21 + C=CC(=O)N1CCN(c2nc(OCC3CCCN3C)nc3c(F)c(-c4nc(N)cc(C)c4C(F)(F)F)c(Cl)cc23)C(C)C1
> 100 nM: IC50 (second compound 0.00316 µM) | IC50 (second compound 0.01 µM) | IC50 (second compound 0.0316 µM) | IC50 (second compound 0.1 µM) | IC50 (second compound 0.316 µM) | IC50 (second compound 1 µM)
inactive: viability, T/C (second compound 0.00316 µM, first compound 0.000316 µM) 93.1% | viability, T/C (second compound 0.00316 µM, first compound 0.001 µM) 154% | viability, T/C (second compound 0.00316 µM, first compound 0.00316 µM) 91.4% | viability, T/C (second compound 0.00316 µM, first compound 0.01 µM) 78.9% | viability, T/C (second compound 0.00316 µM, first compound 0.0316 µM) 58.5% | viability, T/C (second compound 0.00316 µM, first compound 0.1 µM) 53.8% | viability, T/C (second compound 0.01 µM, first compound 0.000316 µM) 111% | viability, T/C (second compound 0.01 µM, first compound 0.001 µM) 150% | viability, T/C (second compound 0.01 µM, first compound 0.00316 µM) 94.9% | viability, T/C (second compound 0.01 µM, first compound 0.01 µM) 72.7% | viability, T/C (second compound 0.01 µM, first compound 0.0316 µM) 55.5% | viability, T/C (second compound 0.01 µM, first compound 0.1 µM) 53.6% | viability, T/C (second compound 0.0316 µM, first compound 0.000316 µM) 101% | viability, T/C (second compound 0.0316 µM, first compound 0.001 µM) 138% | viability, T/C (second compound 0.0316 µM, first compound 0.00316 µM) 83.4% | viability, T/C (second compound 0.0316 µM, first compound 0.01 µM) 79.2% | viability, T/C (second compound 0.0316 µM, first compound 0.0316 µM) 67.1% | viability, T/C (second compound 0.0316 µM, first compound 0.1 µM) 54.6% | viability, T/C (second compound 0.1 µM, first compound 0.000316 µM) 98.5% | viability, T/C (second compound 0.1 µM, first compound 0.001 µM) 111% | viability, T/C (second compound 0.1 µM, first compound 0.00316 µM) 89.9% | viability, T/C (second compound 0.1 µM, first compound 0.01 µM) 84.3% | viability, T/C (second compound 0.1 µM, first compound 0.0316 µM) 62% | viability, T/C (second compound 0.1 µM, first compound 0.1 µM) 55.7% | viability, T/C (second compound 0.316 µM, first compound 0.000316 µM) 109% | viability, T/C (second compound 0.316 µM, first compound 0.001 µM) 107% | viability, T/C (second compound 0.316 µM, first compound 0.00316 µM) 107% | viability, T/C (second compound 0.316 µM, first compound 0.01 µM) 81.5% | viability, T/C (second compound 0.316 µM, first compound 0.0316 µM) 69.5% | viability, T/C (second compound 0.316 µM, first compound 0.1 µM) 55.3% | viability, T/C (second compound 1 µM, first compound 0.000316 µM) 109% | viability, T/C (second compound 1 µM, first compound 0.001 µM) 140% | viability, T/C (second compound 1 µM, first compound 0.00316 µM) 86.4% | viability, T/C (second compound 1 µM, first compound 0.01 µM) 88.3% | viability, T/C (second compound 1 µM, first compound 0.0316 µM) 75.2% | viability, T/C (second compound 1 µM, first compound 0.1 µM) 55.7%
